The source of these data is publication PMC10729960, “Developing novel antimicrobials by combining cancer chemotherapeutics with bacterial DNA repair inhibitors” (PLOS Pathogens, 2023).

Common to all, as to format: biochemical
Assay [1] deals with T1, UvrABC (UvrA, UvrB and UvrC) (Escherichia coli, UniProt P0A698+P0A8F8+P0A8G0).
T1 construct: purified proteins; UvrB and UvrC with C-terminal linker, AviTag, TEV site and 6xHis
As to the kind of experiment: fluorescence-based DNA incision assay (Cy5 / black hole quencher). The following applies: 37 °C, 200 nM UvrA, 400 nM UvrB, 200 nM UvrC, 1 mM ATP, 100 nM fluorescein-adducted DNA, pH 7.5, compound concentration not given for this assay.

For assay [2], the target named is T2, UvrA (Escherichia coli, UniProt P0A698).
T2 sequence (P0A698 1-940): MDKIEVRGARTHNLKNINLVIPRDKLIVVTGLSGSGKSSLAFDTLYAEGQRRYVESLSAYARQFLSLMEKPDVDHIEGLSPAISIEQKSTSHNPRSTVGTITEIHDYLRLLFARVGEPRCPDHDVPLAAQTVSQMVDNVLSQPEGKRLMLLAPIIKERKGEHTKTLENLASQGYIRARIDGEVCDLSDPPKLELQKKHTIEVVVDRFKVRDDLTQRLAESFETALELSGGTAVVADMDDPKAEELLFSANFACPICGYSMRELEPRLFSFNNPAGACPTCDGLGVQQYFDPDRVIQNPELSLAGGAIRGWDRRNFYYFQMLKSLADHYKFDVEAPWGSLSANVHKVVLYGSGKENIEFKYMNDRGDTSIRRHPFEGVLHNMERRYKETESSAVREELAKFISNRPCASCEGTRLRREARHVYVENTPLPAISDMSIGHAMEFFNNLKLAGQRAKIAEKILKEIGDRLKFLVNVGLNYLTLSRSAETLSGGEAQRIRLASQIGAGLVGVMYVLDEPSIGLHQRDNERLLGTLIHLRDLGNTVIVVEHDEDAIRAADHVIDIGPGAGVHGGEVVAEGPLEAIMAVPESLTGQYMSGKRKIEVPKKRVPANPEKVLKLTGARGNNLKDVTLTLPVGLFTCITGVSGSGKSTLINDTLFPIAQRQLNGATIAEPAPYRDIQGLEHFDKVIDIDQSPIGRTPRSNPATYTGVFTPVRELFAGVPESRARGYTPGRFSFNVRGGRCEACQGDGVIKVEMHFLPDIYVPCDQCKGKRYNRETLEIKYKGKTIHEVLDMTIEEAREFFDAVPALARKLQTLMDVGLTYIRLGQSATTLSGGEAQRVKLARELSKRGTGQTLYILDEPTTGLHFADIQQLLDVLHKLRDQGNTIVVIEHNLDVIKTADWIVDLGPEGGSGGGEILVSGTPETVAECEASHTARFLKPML
As to the kind of experiment: NADH-coupled ATPase assay (pyruvate kinase / lactate dehydrogenase). To be noted: 1 mM ATP, 50 nM UvrA, 10 mM MgCl2, pH 7.5, room temperature.

The target in assay [3] is T2, UvrA. The description is as above. The following applies: without DNA; 50 nM UvrA, 20 μM compound, 1 mM ATP, 10 mM MgCl2, pH 7.5, room temperature; allosteric site only from docking.
Assay [4] concerns the target T2, UvrA. The description is as above. To be noted: with and without DNA; 50 nM UvrA, 20 μM compound, 1 mM ATP, 10 mM MgCl2, pH 7.5, room temperature; DNA intercalator.

Each structure is given as a SMILES string.

T1 sequence (P0A8G0 whole entry, one chain of several): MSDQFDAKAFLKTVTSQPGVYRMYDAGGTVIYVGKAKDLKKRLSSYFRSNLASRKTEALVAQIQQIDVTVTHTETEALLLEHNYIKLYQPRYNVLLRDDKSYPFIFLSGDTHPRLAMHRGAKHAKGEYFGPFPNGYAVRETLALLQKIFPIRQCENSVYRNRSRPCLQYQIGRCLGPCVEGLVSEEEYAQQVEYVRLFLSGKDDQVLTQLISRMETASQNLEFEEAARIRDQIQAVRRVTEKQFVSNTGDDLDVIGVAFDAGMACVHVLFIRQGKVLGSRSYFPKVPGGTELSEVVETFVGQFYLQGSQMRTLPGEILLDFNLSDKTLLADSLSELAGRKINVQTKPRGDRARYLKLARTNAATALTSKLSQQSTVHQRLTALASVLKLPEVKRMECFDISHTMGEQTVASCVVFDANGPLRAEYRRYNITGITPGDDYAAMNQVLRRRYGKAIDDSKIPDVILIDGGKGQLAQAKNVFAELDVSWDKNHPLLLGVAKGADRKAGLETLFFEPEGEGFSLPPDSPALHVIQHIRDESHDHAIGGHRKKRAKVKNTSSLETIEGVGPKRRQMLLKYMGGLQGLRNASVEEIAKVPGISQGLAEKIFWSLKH
T1 sequence (P0A8F8 2-673, one chain of several): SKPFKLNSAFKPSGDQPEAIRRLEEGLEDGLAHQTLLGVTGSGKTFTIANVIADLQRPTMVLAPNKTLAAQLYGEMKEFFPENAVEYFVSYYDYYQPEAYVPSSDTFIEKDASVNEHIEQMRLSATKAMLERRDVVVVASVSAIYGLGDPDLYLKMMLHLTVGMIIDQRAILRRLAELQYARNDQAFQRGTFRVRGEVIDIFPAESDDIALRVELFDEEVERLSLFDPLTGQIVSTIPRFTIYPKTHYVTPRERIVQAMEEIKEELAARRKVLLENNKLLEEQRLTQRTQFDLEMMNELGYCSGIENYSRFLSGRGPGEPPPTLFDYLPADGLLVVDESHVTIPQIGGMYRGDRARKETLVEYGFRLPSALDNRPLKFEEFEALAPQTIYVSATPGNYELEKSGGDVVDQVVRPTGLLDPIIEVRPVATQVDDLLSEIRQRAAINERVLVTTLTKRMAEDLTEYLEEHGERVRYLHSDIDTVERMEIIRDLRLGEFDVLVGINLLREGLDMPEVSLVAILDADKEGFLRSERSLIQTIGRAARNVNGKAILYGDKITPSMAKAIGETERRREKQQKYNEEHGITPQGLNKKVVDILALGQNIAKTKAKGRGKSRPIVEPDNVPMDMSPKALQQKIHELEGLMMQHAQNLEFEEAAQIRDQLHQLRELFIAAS

On to `Nc1c2ccccc2nc2ccccc12` [9-aminoacridine], for which the max inhibition in assay [1] (2.5 h, possibly acts through DNA, target subunit unk) is ~ 49%.
As for `Nc1ncnc2c1ncn2[C@@H]1O[C@H](COP(=O)(O)OP(=O)(O)OP(=O)(O)O)[C@@H](O)[C@H]1O` [ATP], the “NADH-coupled ATPase assay (pyruvate kinase / lactate dehydrogenase)” value on UvrA [2] is “We directly measured the rate of ATP turnover for purified UvrA”.
On to `C/C=C(/C(=C/C)c1ccc(O)cc1)c1ccc(O)cc1` [Dienestrol], for which the “% reduction of ATPase at 20 μM” value on UvrA [3] is listed as greater than 70%. The max inhibition in assay [1] (16 h) is ~ 25%.
Regarding `N[C@@H](Cc1cc(I)c(Oc2cc(I)c(O)c(I)c2)c(I)c1)C(=O)O` [L-thyroxine], at UvrA [3], the “% reduction of ATPase at 20 μM” value is listed as greater than 70%.
As to `O=C1c2c(O)ccc(O)c2C(=O)c2c(NCCNCCO)ccc(NCCNCCO)c21` [Mitoxantrone], the “% ATPase activity at 20 μM” value on UvrA [4] was “both Mitoxantrone and Pirarubicin directly inhibit UvrA’s ATPase activity”. Besides, the max inhibition in assay [1] (16 h, DNA intercalator) is ~ 82%.
As to `COc1cccc2c1C(=O)c1c(O)c3c(c(O)c1C2=O)C[C@@](O)(C(=O)CO)C[C@@H]3O[C@H]1C[C@H](N)[C@H](O[C@@H]2CCCCO2)[C@H](C)O1` [Pirarubicin], the “% ATPase activity at 20 μM” value on UvrA [4] was “Pirarubicin, Mitoxantrone, Dienestrol and L-thyroxine all inhibited the ATPase”.
